Data on nine compounds can be found in article PMC7114351 (Antiviral Research, 2008).

“And” between values parts separate entries of the source, which are not always exact repeats. Equal values may be shown once. “Also recorded” adds a separate entry of the source. Read-outs that look alike come from different tables or passages of the source.

For one data set, the system named is VACV genomic DNA. The data set is classed as cell-based, vaccinia virus.
A short description of data set [1]: Cytotoxicity, MTT assay. The note with it: African green monkey, BSC-40 cells. The data set is classed as cell-based, African green monkey. In general terms: Tetrazolium assays rely on reduction of a dye to a coloured formazan, in cell work by metabolically active cells.
The next data set deals with WT VACV (WR). Put plainly: microbe, parasite or virus in culture. Format: cell-based. The note with it: Orthopoxvirus vaccinia; for IC50: read-out: Titer IC50 ± SD; for IC90: read-out: Titer IC90 ± SD.
A further data set deals with VACV proteins. The data set is classed as cell-based, vaccinia virus.
Data set [2] is described as follows: Cytotoxicity, MTT assay. Format: cell-based, human. The following applies: human, HeLa G cells.
Data set [3] is described as follows: Cytotoxicity, MTT assay. Format: cell-based. The following applies: human, Jurkat cells.
Data set [4] relates to recombinant VACV expressing luciferase. Put plainly: microbe, parasite or virus in culture. The data set is classed as cell-based, vaccinia virus. The note with it: for IC50: Orthopoxvirus vaccinia, read-out: Luc IC50 ± SD.
Another data set has as its system WT VACV. Format: cell-based, vaccinia virus.
Another data set has as its system recombinant VACV. Put plainly: microbe, parasite or virus in culture. The note with it: for IC50 / IC90: Orthopoxvirus vaccinia; for IC50: read-out: Titer IC50 ± SD; for IC90: read-out: Titer IC90 ± SD. Format: cell-based, vaccinia virus.
Data set [5] in a line: Cytotoxicity, MTT assay. The note with it: mouse, L929 cells. Format: cell-based, mouse.
The next data set relates to VACV (strain WR). The note with it: HFF cells, ref Quenelle et al., 2007; cited from earlier work.
The next data set concerns VACVs (strain WR). The note with it: two different VACVs (strain WR), ref Becker et al., 2008, cited from earlier work.
Another data set deals with BSC-40 cells. Put plainly: Cytotoxicity, MTT assay. The data set is classed as cell-based, African green monkey.
Data set [6] has as its system VACV early/late promoter p7.5 (Luc E/L). The data set is classed as cell-based, vaccinia virus.
The next data set has as its system HeLa G cells. Kind of data set: Cytotoxicity, MTT assay. Format: cell-based, human.
In another data set the test system is VACV. The data set is classed as cell-based, vaccinia virus.
The test system of data set [7] is cell lines of the antiviral assays. Put plainly: Cytotoxicity in conditions of the antiviral assays. The note with it: up to 1 mM; higher cell density, 2% serum, 24 h incubation.
Data set [8] relates to luciferase expressed by Luc E/L or Luc L. Format: cell-based, vaccinia virus.
Data set [9] concerns VACV late promoter p4b (Luc L). The data set is classed as cell-based, vaccinia virus.
In another data set the test system is L929 cells. Kind of data set: Cytotoxicity, MTT assay. The data set is classed as cell-based, mouse.

By CC50 is commonly meant the concentration giving 50% cytotoxicity. A low value points to harm at low concentration. What is called IC50 is the concentration at which inhibition is half-maximal. As usually defined, the IC90 is the concentration at which the effect reaches the 90% level.

On to `C=C(CC)C(=O)c1ccc(OCC(=O)O)c(Cl)c1Cl` [Ethacrynic acid, ethacrynic acid], for which, in the data set on VACV genomic DNA, the “levels of VACV genomic DNA” value is given as “not changed”. Moreover, the CC50 at 2 days in “Cytotoxicity, MTT assay [1]” was found to be 292 µM; in “Cytotoxicity, MTT assay [2]”, 128 µM; in the data set “Cytotoxicity, MTT assay [3]” it was 35 µM; in the data set “Cytotoxicity, MTT assay [5]”, 224 µM. In addition, the IC50 turned out to be 9.5 ± 2.6 µM in the data set with WT VACV (WR) (24 h); 9.2 ± 1 µM in the data set with WT VACV (WR) (BSC-40, 24 h); 13.8 ± 4.7 µM in the data set with WT VACV (WR) (Jurkat, 24 h); 19.3 ± 3.9 µM in the data set with WT VACV (WR) (L929, 24 h); 18.3 ± 3.7 µM in [4] (24 h); 35.3 ± 7 µM in data set [4] (BSC-40, 24 h). For the same compound, the IC50 is 2.6 ± 0.6 µM in [4] (HeLa, 24 h); 26.5 ± 1.9 µM in data set [4] (L929, 24 h); 12.2 ± 0.3 µM with recombinant VACV (24 h); 11.9 ± 0.5 µM in the data set on recombinant VACV (BSC-40, 24 h); 1.6 ± 0.1 µM in the data set with recombinant VACV (HeLa, 24 h); 9.5 ± 2.4 µM in the data set with recombinant VACV (Jurkat, 24 h). Also, the IC50 with recombinant VACV (L929, 24 h) came to 19.8 ± 2.4 µM. The IC90 came out at 47.8 ± 7.9 µM in the data set with WT VACV (WR) (24 h); 29.4 ± 1 µM with WT VACV (WR) (BSC-40, 24 h); 18.8 ± 0.6 µM in the data set on WT VACV (WR) (HeLa, 24 h); 42.9 ± 13.4 µM with WT VACV (WR) (Jurkat, 24 h); 61.3 ± 16.3 µM with WT VACV (WR) (L929, 24 h); 40.9 ± 1.4 µM with recombinant VACV (24 h). The IC90 in the data set on recombinant VACV (BSC-40, 24 h) came out at 30.9 ± 0.8 µM; with recombinant VACV (HeLa, 24 h) it was 5.4 ± 0.3 µM; in the data set on recombinant VACV (Jurkat, 24 h), 30.9 ± 10 µM; in the data set on recombinant VACV (L929, 24 h), 80.2 ± 30.9 µM. Moreover, the “VACV protein levels, western blot” value in the data set with VACV proteins is listed as “did not seem to decrease protein levels”. Besides, in the data set on WT VACV, the number of plaques entry was “reduced the number of plaques”. Moreover, in the data set on recombinant VACV, the “inhibition of VACV growth” value was 1 logs and 2 logs.
With `O=C(NN1C(=O)[C@@H]2[C@@H]3C=C[C@@H]([C@H]4C[C@@H]34)[C@@H]2C1=O)c1ccc(C(F)(F)F)cc1` [ST-246], the IC50 in the data set with VACV (strain WR) was 0.1 µM.
Consider `O=C1O[C@H]([C@@H](O)CO)C(O)=C1O` [L-ascorbic acid, L-Ascorbic acid], for which, in data set [4], the “luciferase activity, % of the mock-treated controls” value (from here on “luciferase activity, %”) was found to be 120%.
Regarding `Nc1ccn(C[C@@H](CO)OCP(=O)(O)O)c(=O)n1` [cidofovir], the IC50 with VACVs (strain WR) (BSC-40 cells) is < 50 µM; in the data set with VACVs (strain WR) (Vero cells), 54 µM and 62 µM; in the data set on VACV (strain WR) it was 33 µM.
For `O=C(O)CCCCC1CCSS1` (stereo not drawn) [Lipoic acid, α-lipoic acid], in the data set with VACV genomic DNA, the “levels of VACV genomic DNA” value is given as “not changed”. Moreover, the CC50 entry in the data set on BSC-40 cells (MTT, 2 days of incubation) is listed as “Growth promotion”; in the data set on HeLa G cells (MTT, 2 days of incubation), “Growth promotion”; in the data set on L929 cells (MTT, 2 days of incubation) it was “Growth promotion”. Further, the “inhibition of cell growth, MTT” value in the data set on BSC-40 cells (up to 2 mM), with HeLa G cells (up to 2 mM) and in the data set with L929 cells (up to 2 mM) was “not found to inhibit growth” in each case. The “effect on activity of Luc E/L” value in [6] is reported as “dose-dependent inhibitory effect”. Further, in data set [6], the “effect on activity of luciferase expressed by Luc E/L (early gene expression)” value is “neither EA nor LA further decreased this measurable activity of luciferase”. For the same compound, the half-inhibitory concentration (IC50) in the data set with WT VACV (WR) (24 h) is 587 ± 296 µM; in the data set with WT VACV (WR) (BSC-40, 24 h), 712 ± 444 µM; in the data set with WT VACV (WR) (HeLa, 24 h) it was 803 ± 273 µM; in the data set with WT VACV (WR) (Jurkat, 24 h) it was 492 ± 92 µM; in the data set on WT VACV (WR) (L929, 24 h), 702 ± 16 µM; in data set [4] (24 h) it was 305 ± 12 µM. Besides, the IC50 was found to be 642 ± 4 µM in data set [4] (BSC-40, 24 h); 838 ± 159 µM in [4] (HeLa, 24 h); 747 ± 199 µM in [4] (L929, 24 h); 409 ± 8 µM in the data set on recombinant VACV (BSC-40, 24 h); 220 ± 14 µM with recombinant VACV (HeLa, 24 h); 354 ± 52 µM in the data set on recombinant VACV (Jurkat, 24 h). The IC50 in the data set on recombinant VACV (L929, 24 h) turned out to be 245 ± 18 µM. In addition, the “VACV protein levels, western blot” value in the data set on VACV proteins is listed as “did not induce any major changes; also recorded: decreased the protein expression slightly”. Besides, the “effect of pre-treatment on luciferase activity and virus titers (VACV entry)” value in the data set with VACV is recorded as “not found to cause any differences”. Also, the CC50 at 2 days in “Cytotoxicity, MTT assay [3]” was > 2000 µM. Besides, the “cytotoxicity in conditions of the antiviral assays” value in data set [7] was “neither EA nor LA induced any obvious cytotoxicity”. Moreover, in [8], the “protein levels of luciferase, western blot” value is reported as “gradual decrease”. Moreover, the “effect on activity of Luc L” value in data set [9] is “dose-dependent inhibitory effect”. Besides, the “effect on activity of luciferase expressed by Luc L” value in data set [9] is “neither EA nor LA affected this result”. Besides, the size of plaques entry with WT VACV was “reduced the size of plaques”.
With `Nc1ccn([C@@H]2O[C@H](CO)[C@@H](O)[C@@H]2O)c(=O)n1` [AraC, cytosine arabinoside], the “activity of luciferase expressed by Luc L, % of the mock-treated controls grown in the absence of AraC” value in data set [9] is given as ≤ 0.05%.
With `OCCS` [β-mercapthoethanol, β-mercaptoethanol], the “luciferase activity, %” value in data set [4] is 150%.
As for `CCCCCCCCCCCCCCCCOCCCOP(=O)(O)CO[C@H](CO)Cn1ccc(N)nc1=O` [CMX001], the IC50 in the data set with VACV (strain WR) was 0.13 µM.
For the compound `O[C@@H](CS)[C@@H](O)CS` (racemic) [dithiothreitol], the “luciferase activity, %” value in data set [4] amounted to 140%.
